Where a name gives a salt, the structure may show the parent alone. ± gives the standard deviation of the averaged measurements.

The subject of the experiment is HepaRG. Kind of experiment: LDH release cytotoxicity, % of total lysis control; higher = more cytotoxic. The note with it: 48 h. The method in brief: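 Single-lot HepaRG cells in collagen I-coated 96-well plates were treated for 48 h in serum-free induction medium containing 0.5% DMSO with test chemicals in eight-point half-log series up to 100 µM. For total lysis, wells received 0.1% Triton X. LDH in 50 µL spent medium was assayed by resorufin fluorescence with CytoTox-ONE. Percent cytotoxicity was normalized to the on-plate vehicle and total lysis controls, with duplicates averaged.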
Background: LDH leaks from cells whose membrane has failed.

As for `Clc1ccc(C(c2ccc(Cl)cc2)C(Cl)(Cl)Cl)cc1` [Dichlorodiphenyltrichloroethane], the LDH release cytotoxicity (0.03162 µM) was 0.0415 ± 1%; the LDH release cytotoxicity (0.1 µM) is 0.0911 ± 1%; the LDH release cytotoxicity (0.3162278 µM) amounted to 0.015 ± 0.3%; the LDH release cytotoxicity (1 µM) came to 0.105 ± 0.45%; the LDH release cytotoxicity (3.16228 µM) was found to be 0.853 ± 0.39%; the LDH release cytotoxicity (10 µM) turned out to be 0.81 ± 0.52%. Also, the LDH release cytotoxicity by setting is: (31.6228 µM) 0.658 ± 0.99%; (100 µM) 1.05 ± 0.28%.

On to `Nc1ccc([N+](=O)[O-])cc1` [4-Nitroaniline], for which the LDH release cytotoxicity by setting is: (0.03162 µM) -1.77 ± 1.4%; (0.1 µM) -2.08 ± 0.69%; (0.3162278 µM) -1.811 ± 0.018%; (1 µM) -1.58 ± 0.75%; (3.16228 µM) -1.84 ± 0.43%; (10 µM) -0.905 ± 0.22%. Also, the LDH release cytotoxicity was 0.842 ± 1.3% (31.6228 µM) and -0.219 ± 0.45% (100 µM).

`CCCCC(CC)COC(=O)c1ccccc1C(=O)OCC(CC)CCCC` (configuration not stated) [Di(2-ethylhexyl) phthalate]: the LDH release cytotoxicity runs as follows: (0.01581 µM) -1.27 ± 1.2%; (0.05 µM) -1.74 ± 0.036%; (0.1581139 µM) -1.47 ± 0.65%; (0.5 µM) -0.91 ± 0.3%; (1.5811388 µM) -1.48 ± 0.38%; (5 µM) -1.76 ± 0.37%. The LDH release cytotoxicity is, setting by setting: (15.8114 µM) -0.407 ± 1.5%; (50 µM) -0.778 ± 0.45%.

Take `CCCCCCCCCCCCCCOS(=O)(=O)O` [Sodium myristyl sulfate]: the LDH release cytotoxicity (0.03162 µM) is -2.12 ± 0.45%; the LDH release cytotoxicity (0.1 µM) was -2.09 ± 0.56%; the LDH release cytotoxicity (0.3162278 µM) is -2.4 ± 1.5%; the LDH release cytotoxicity (1 µM) was -2.13 ± 0.48%; the LDH release cytotoxicity (3.16228 µM) is -2.25 ± 0.37%; the LDH release cytotoxicity (10 µM) was -1.43 ± 0.37%. Moreover, the LDH release cytotoxicity by setting is: (31.6228 µM) -1.69 ± 0.59%; (100 µM) 12.5 ± 6.7%.

As to `COc1ccc(C(=O)Nc2nc3ccccc3c(NCc3ccccc3)c2C#N)cc1`, the LDH release cytotoxicity by setting is: (0.03162 µM) -1.06 ± 0.44%; (0.1 µM) -0.452 ± 0.066%; (0.3162278 µM) -0.037 ± 0.4%; (1 µM) 0.715 ± 0.075%; (3.16228 µM) 2.34 ± 0.3%; (10 µM) 2.97 ± 0.97%. Also, the LDH release cytotoxicity turned out to be 4.87 ± 0.81% (31.6228 µM) and 8.05 ± 0.67% (100 µM).

Regarding `OCCOCCOCCO` [Triethylene glycol], the LDH release cytotoxicity is, setting by setting: (0.03162 µM) -0.151 ± 1%; (0.1 µM) -1.04 ± 0.017%; (0.3162278 µM) -0.871 ± 0.11%; (1 µM) -1.23 ± 0.56%; (3.16228 µM) -1.32 ± 0.055%; (10 µM) -0.871 ± 0.14%. Also, the LDH release cytotoxicity is, setting by setting: (31.6228 µM) -1.1 ± 0.18%; (100 µM) 0.204 ± 0.36%.

Consider `NCCO` [Ethanolamine], for which the LDH release cytotoxicity is, setting by setting: (0.03162 µM) -2.14 ± 1.3%; (0.1 µM) -2 ± 1.6%; (0.3162278 µM) -1.29 ± 0.49%; (1 µM) -1.55 ± 0.046%; (3.16228 µM) -0.642 ± 0.088%; (10 µM) -0.777 ± 0.073%. Further, the LDH release cytotoxicity is -0.101 ± 0.76% (31.6228 µM) and 0.0783 ± 0.76% (100 µM).

Take `Cc1c(C(=O)O)c(O)cc2c1C(=O)c1c(O)c(C3OC(CO)C(O)C(O)C3O)c(O)c(O)c1C2=O` (configuration not stated) [Carminic acid]: the LDH release cytotoxicity reads like this: (0.03162 µM) -11.2 ± 0.91%; (0.1 µM) -11.08 ± 0.041%; (0.3162278 µM) -10.7 ± 0.6%; (1 µM) -11.1 ± 1.1%; (3.16228 µM) -11.2 ± 0.61%; (10 µM) -11 ± 1.2%. The LDH release cytotoxicity (31.6228 µM) is -9.8 ± 2.3% and the LDH release cytotoxicity (100 µM) is -10.4 ± 0.35%.

For the compound `CCNc1nc(NC(C)C)nc(SC)n1` [Ametryn], the LDH release cytotoxicity by setting is: (0.03162 µM) -0.705 ± 0.77%; (0.1 µM) -1.179 ± 0.0064%; (0.3162278 µM) -1.07 ± 0.34%; (1 µM) -1.09 ± 0.47%; (3.16228 µM) -1.44 ± 0.021%; (10 µM) -0.756 ± 0.46%. The LDH release cytotoxicity was -0.965 ± 0.14% (31.6228 µM) and -0.133 ± 0.12% (100 µM).
